One series has as its system Raji. Description: Cytotoxicity (MTT) Raji. Particulars: Homo sapiens; Raji (lymphoma), 4-7 days; read-out: IC 50 cytotoxicity. The format is cell-based, human. On the procedure:
(§1) The cells were cultured in the presence of the porphyrins incubator for 4-7 days and then treated with 3-(4,5-dimethylthiazol-2-yl)-2,5-diphenyl-tetrazolium bromide (MTT). Formazan concentration was quantitated by absorbance at 570 nm.

Series [1] has as its system single-stranded sequence bearing four human telomeric repeats.
Method: The DNA was labeled with 32p at the 5'-end and stored in buffer (10 mM Tris-HCl, 1 mM EDTA, pH 8.0) at 3000 cpm/μl. For each photocleavage reaction, 10 μl of DNA (~5 ng) was mixed with 10 μl of 200 mM KCl, boiled for 10 min, and cooled to room temperature. For the control studies, 10 μl of distilled water was added instead of the KCl solution. The mixtures were transferred to a 96 well plate, 2 μl of 1 μM aqueous TMPyP4 solution added, and the samples exposed to a 24 W fluorescent day-light under a glass filter for various periods of time. The reactions were stopped with 100 μl of calf thymus DNA (0.1 μg/μl), and after phenol-chloroform extraction, the samples were subjected to strand breakage treatment and ethanol precipitation (Han and Hurley, 1996).
A single-stranded sequence bearing four human telomeric repeats was treated with TMPyP4 and then exposed to light.
Series [2] concerns cultured human dermal fibroblasts. Particulars: Georgiou et al., 1994, cited from earlier work.
The next series concerns DU145. Description: Cytotoxicity (MTT) DU145. The format is cell-based, human. Particulars: Homo sapiens, DU-145; DU145 (prostate), 4-7 days; read-out: IC 50 cytotoxicity. On the procedure: as §1
The next series has as its system HeLa. Description: cells. Particulars: Homo sapiens; HeLa, MTT (n = 3 ± SEM); read-out: Cytotoxicity. The series is classed as cell-based, human.
The nature of series [3]: Cytotoxicity (MTT) NHLF normal lung fibroblasts. The format is cell-based. Particulars: human, nhlf cells; NHLF (normal), 4-7 days; read-out: IC 50 cytotoxicity. On the procedure:
as §1
All porphyrins were obtained from Midcentury, Posen, Ill. The experimental work with porphyrins was performed under minimum exposure to light. All human tumor cell lines and normal human breast cells Hs578Bst were purchased from the American Type Culture Collection. Normal human lung fibroblasts NHLF were obtained from Clonetics Corporation. The cell lines were grown according to the suppliers' instructions.

The next series relates to Daudi. Put plainly: cells. The format is cell-based, human. Particulars: Homo sapiens; Daudi (lymphoma), 4-7 days; read-out: IC 50 cytotoxicity. On the procedure: as §1
The target of a further series is human telomerase (Homo sapiens, UniProt O14746). Description: Telomerase inhibition, primer extension assay in HeLa cell extract. The format is biochemical.
human telomerase, sequence (O14746 whole entry): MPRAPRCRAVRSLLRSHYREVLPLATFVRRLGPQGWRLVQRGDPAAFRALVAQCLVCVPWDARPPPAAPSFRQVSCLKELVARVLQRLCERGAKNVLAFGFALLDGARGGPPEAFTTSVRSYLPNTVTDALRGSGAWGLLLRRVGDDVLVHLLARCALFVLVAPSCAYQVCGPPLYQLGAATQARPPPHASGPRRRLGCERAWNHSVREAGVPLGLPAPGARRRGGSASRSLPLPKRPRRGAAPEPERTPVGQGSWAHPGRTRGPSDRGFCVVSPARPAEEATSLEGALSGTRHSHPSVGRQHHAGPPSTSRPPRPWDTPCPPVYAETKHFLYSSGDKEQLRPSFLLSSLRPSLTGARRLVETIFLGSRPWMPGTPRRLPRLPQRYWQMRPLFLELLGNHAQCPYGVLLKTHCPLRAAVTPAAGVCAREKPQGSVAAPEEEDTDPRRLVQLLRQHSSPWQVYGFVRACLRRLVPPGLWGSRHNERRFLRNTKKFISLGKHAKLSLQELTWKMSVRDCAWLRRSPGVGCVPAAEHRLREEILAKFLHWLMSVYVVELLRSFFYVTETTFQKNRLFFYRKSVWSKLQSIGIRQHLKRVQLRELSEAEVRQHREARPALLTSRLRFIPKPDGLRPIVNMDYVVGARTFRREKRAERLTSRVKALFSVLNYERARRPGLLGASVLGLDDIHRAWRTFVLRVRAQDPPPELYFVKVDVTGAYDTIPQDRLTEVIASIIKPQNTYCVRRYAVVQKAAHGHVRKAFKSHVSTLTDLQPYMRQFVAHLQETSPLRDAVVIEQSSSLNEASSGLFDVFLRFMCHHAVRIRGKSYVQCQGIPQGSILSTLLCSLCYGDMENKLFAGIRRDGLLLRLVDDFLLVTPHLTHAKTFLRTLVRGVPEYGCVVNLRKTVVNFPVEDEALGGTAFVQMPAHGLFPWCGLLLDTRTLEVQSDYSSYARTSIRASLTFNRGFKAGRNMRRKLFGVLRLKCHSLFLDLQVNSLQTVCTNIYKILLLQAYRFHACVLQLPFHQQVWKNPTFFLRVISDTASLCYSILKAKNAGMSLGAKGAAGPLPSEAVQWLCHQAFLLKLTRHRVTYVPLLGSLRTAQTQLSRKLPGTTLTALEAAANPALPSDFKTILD
For series [4] the following is noted: mice; cited from earlier work.
Series [5] relates to telomere length in MCF7 cells. Put plainly: Telomere length analysis in MCF7 cells. The series is classed as cell-based, human. Particulars: 1 and 10 μM, by day 8 (about 6 population doublings). On the procedure:
DNA was extracted from a minimum of 5×10^6 cells by SDS, proteinase K treatment, then purified and quantitated as previously described (Strahl and Blackburn, 1991). Approximately 1 μg of total DNA was digested with Mse I; the digested DNA was size fractionated by agarose gel electrophoresis and Southern blotted. The blots were hybridized with a ^32 P-labeled 0.5 kb PCR™ DNA fragments composed of the telomere repeat d(TTAGGG), which served as a probe for the telomeres. The hybridized probe was detected by autoradiography and each lane on the film was analyzed by phosphoimage analysis (Molecular Dynamics).
Telomeres shorten at an average rate of 65-100 base pairs per cell division (Counter et al., 1992). To observe a significant effect of an agent on telomere length, e.g., shortening the telomeres by >1 kilobase in MCF7 cells (5.7 kbases), a minimum of […] population doubling times will be required.

The subject of series [6] is MCF7 human breast carcinoma cells (telomerase activity). Put plainly: Telomerase activity in intact MCF7 cells cultured with porphyrin. The series is classed as cell-based. Particulars: 1, 10 and 100 μM, days 4, 8 and 15. On the procedure: To determine the long-term effects of TMPyP4 on whole cells, MCF7 breast carcinoma cells were cultured in the continuous presence of 1, 10, and 100 μM TMPyP4. The porphyrin solution was freshly added to the medium from the concentrated stock at each passage of the cells (every 3-4 days). On days 4, 8, and 15, the cells were lysed and the telomerase activity was measured in the extracts.
Breast cancer cells MCF-7m, BT20, HS578t and normal HS578Bst cells were grown in culture in T75 flasks (10^6 cells/flask). […] The cells were harvested and freeze-thawed and the extracts used to measure telomerase activity using the Dynabeads method.

For the next series, the system named is MCF-7. Put plainly: Cytotoxicity (MTT) MCF-7. The format is cell-based, human. Particulars: Homo sapiens, MCF7; MCF-7 (breast), 4-7 days; read-out: IC 50 cytotoxicity. On the procedure: as §1
Series [7] has as its system DNA quadruplex in single-stranded template with four telomeric repeats. Put plainly: DNA synthesis arrest assay (Taq DNA polymerase). The format is biochemical. On the procedure:
This assay was a modification of that described by Weitzmann et al. (Wang and Patel, 1993). Briefly, primers (24 nM) labeled with [γ-^32 P] ATP were mixed with template DNA PQ74 (12 nM) in a Tris-HCl buffer (10 mM Tris, pH 8.0) containing 10 mM MgCl2 and heated at 90° C. for 4 min. After cooling at room temperature for 15 min, spermidine (to give 100 μM) and TMPyP4 (to give the concentrations indicated in the figure) were added. The primer extension reactions were initiated by adding dNTP (final concentration 100 μM) and Taq DNA polymerase (2.5 U/reaction, Boehringer Mannheim). The reactions were incubated at 55 C. (or otherwise as indicated) for 15 min, then stopped by adding an equal volume of stop buffer (95% formamide, 10 mM EDTA, 10 mM NaOH, 0.1% xylene cyanol, 0.1% bromophenol blue). The products were separated on a 12% polyacrylamide sequencing gel.
A single-stranded DNA template, which included four telomeric repeats, was taken, and an 18-base primer complementary to the […] was extended using Taq DNA polymerase.

Where [8] appears, read: listed as tetra(N-methyl-4-pyridyl)porphyrin.

Read-outs that look alike come from different tables or passages of the source.

By inhibition is commonly meant the change of the read-out against control, counted positive when it falls. Turning to `C[n+]1ccc(-c2c3nc(c(-c4cc[n+](C)cc4)c4ccc([nH]4)c(-c4cc[n+](C)cc4)c4nc(c(-c5cc[n+](C)cc5)c5ccc2[nH]5)C=C4)C=C3)cc1` [TMPyP4, 5,10,15,20-tetra-(N-methyl-4-pyridyl)porphine], the IC50 stood at 11.9 µM in the series on Raji; 93.6 µM in the series on DU145; 18.7 ± 3.89 µM in the series on HeLa; 3.1 µM in the series with Daudi; 6.5 ± 1.4 µM against human telomerase (IC50 telomerase); 6.5 ± 1.4 µM against human telomerase (IC50 telomerase (text)). Also, the IC50 was determined as 15 µM against human telomerase (Telomerase Inhibition) and 49.6 µM in the series on MCF-7. For the same compound, in [1], the photocleavage selectivity result is “clear selectivity for cleavage at the 5'-ApG-3' step at G1 and G7, and 5'-GpT-3' step at G6 and G12”. The “uptake / nuclear accumulation” value is “rapidly accumulate (within min) in the nuclei of cultured human dermal fibroblasts” in [2]; “taken up by cells and localized in organelles known to contain DNA” in series [2] (setting [8]). For the same compound, the CC50 in [3] came out at 13.5 µM. In addition, on human telomerase (25 µM), the “% Inhibition of telomerase” value was determined as 60%. Moreover, the inhibition at 25 µM at human telomerase (read-out: amount of inhibition of telomerase) was found to be 72%. Moreover, the “accumulation in tumor tissue” value in series [4] is “accumulation in tumor tissue in mice”. Moreover, the “effect on telomere shortening” value in series [5] is recorded as “No detectable effects on telomere shortening”. The results for the “telomerase activity in intact MCF7 cells” value in [6] and in [6] (setting [8]) were “clear concentration-dependent loss of telomerase activity” and “telomerase activity is reduced relative to control cells”, respectively. Moreover, the “melting temperature of the quadruplex” value in [7] is listed as “increased the melting temperature of the quadruplex”. For the same compound, the “pause site band intensity” value in [7] (Tris buffer without K+ or Na+) is “more intense in a concentration-dependent manner”. Moreover, in [7] (temperature dependence), the “persistence of bands at the pause site” value is “up to 65 °C”.

The record behind these values is patent US6087493A, “Porphyrin compounds as telomerase inhibitors” (Regents of the University of Texas System, priority 1998, dated 2000).
